How the values were obtained:
[1] = Comparative plasma PK of Int 1-4 versus gemcitabine in mouse (study a); type: in vivo; settings: CD-1 mice; for AUC0-inf/AUC0-last / AUC0-last / AUC(0-inf) / Cmax / MRT0-inf / MRT0-last / T1/2 / Tmax: plasma
[2] = Comparative plasma PK of Compound 1 versus Int 1-4 in male CD-1 mice (study b); type: in vivo
Protocol: Objectives: to compare the plasma pharmacokinetics and stability of Compound 1 with its non-phosphorylated SMDC analog (Int 1-4) and in plasma following a single intravenous infusion administration of Compound 1 at 11.6 mg/kg and 23.2 mg/kg with Int 1-4 (formulation F1 & F2) at 10.0 mg/kg in male CD-1 mice
PK measurements: compare PK parameters C0, CL, Vdss, Cmax, tmax, t1/2, AUC(0-t), AUC(0-inf), MRT(0-t), MRT(0-inf) for Compound 1 and Int 1-4

[3] = Compound 1 and gemcitabine plasma PK in the male cynomolgus monkey (study h); type: in vivo; settings: plasma
Protocol: Objectives: to compare the plasma pharmacokinetics and stability of the Compound 1 with Int 1-4 and in plasma following a single intravenous infusion administration of Compound 1 at 5 mg/kg and 10 mg/kg with equimolar gemcitabine at 2.28 mg/kg in male cynomolgous monkeys.
PK measurements: compare PK parameters C0, CL, Vdss, Cmax, tmax, t1/2, AUC(0-t), AUC(0-inf), MRT(0-t), MRT(0-inf) for Compound 1 and Int 1-4 with gemcitabine.

[4] = Comparative PK of Int 1-4 versus gemcitabine in rat plasma (study i); type: in vivo, Sprague-Dawley rats; settings: plasma, Sprague-Dawley rat
Excerpt: PK measurements: compare PK parameters C0, CL, Vdss, Cmax, tmax, t1/2, AUC(0-t), AUC(0-inf), MRT(0-t), MRT(0-inf) for Int 1-4 and gemcitabine.

[5] = Int 1-4 dog plasma PK (study j); type: in vivo; settings: male beagle dog
Protocol: Objectives: to compare the plasma pharmacokinetics and stability of Int 1-4 in plasma following single intravenous infusion administration of t 1-4 at 10 mg/kg and 20 mg/kg in the male Beagle dog.

[6] = Comparative dog plasma PK of Int 1-4 versus gemcitabine (study k); type: in vivo; settings: male beagle dog
Protocol: Objectives: to compare the plasma pharmacokinetics and stability of Int-4 in plasma following single intravenous infusion administration of Int 1-4 at 5 mg/kg and 10 mg/kg versus gemcitabine at 5 mg/kg in the male Beagle dog

[7] = after iv gemcitabine 5.29 mg/kg
[8] = after iv Int 1-4 10.0 mg/kg, Formulation 1
[9] = after iv Int 1-4 10.0 mg/kg, Formulation 2
[10] = after iv gemcitabine 2.28 mg/kg
[11] = after iv gemcitabine 4.47 mg/kg
[12] = after iv Int 1-4 10 mg/kg (study j)
[13] = after iv Int 1-4 20 mg/kg (study j)
[14] = after iv Int 1-4 5 mg/kg (study k)
[15] = after iv Int 1-4 10 mg/kg (study k)

plasma levels of dFdU higher than gemcitabine, based on the ratios of AUC0-last [1, 7]: ~500%
AUC0-inf/AUC0-last ([1]; after iv Int 1-4 9.4 mg/kg): 120%
AUC0-last ([1]; after iv Int 1-4 9.4 mg/kg): 1039 ng·h/mL
AUC(0-inf) ([1]; after iv Int 1-4 9.4 mg/kg): 1440 ng·h/mL
Cmax ([1]; after iv Int 1-4 9.4 mg/kg): 253 ng/mL
MRT0-inf ([1]; after iv Int 1-4 9.4 mg/kg): 4.65 h
MRT0-last ([1]; after iv Int 1-4 9.4 mg/kg): 2.73 h
T1/2 ([1]; after iv Int 1-4 9.4 mg/kg): 3.08 h
Tmax ([1]; after iv Int 1-4 9.4 mg/kg): 1.00 h
AUC0-inf/AUC0-last [1, 7]: 111%
AUC0-last [1, 7]: 6827 ng·h/mL
AUC(0-inf) [1, 7]: 8187 ng·h/mL
Cmax [1, 7]: 1600 ng/mL
MRT0-inf [1, 7]: 3.49 h
MRT0-last [1, 7]: 2.56 h
T1/2 [1, 7]: 2.23 h
Tmax [1, 7]: 0.667 h
AUC0-last ([2]; after iv Compound 1 11.6 mg/kg): 967 ng·h/mL
AUC(0-inf) ([2]; after iv Compound 1 11.6 mg/kg): 786 ng·h/mL
Cmax ([2]; after iv Compound 1 11.6 mg/kg): 220 ng/mL
MRT0-inf ([2]; after iv Compound 1 11.6 mg/kg): 3.81 h
MRT0-last ([2]; after iv Compound 1 11.6 mg/kg): 3.70 h
Tmax ([2]; after iv Compound 1 11.6 mg/kg): 3.25 h
t1/2 ([2]; after iv Compound 1 11.6 mg/kg): 2.38 h
AUC0-last ([2]; after iv Compound 1 23.2 mg/kg): 1960 ng·h/mL
AUC(0-inf) ([2]; after iv Compound 1 23.2 mg/kg): 1830 ng·h/mL
Cmax ([2]; after iv Compound 1 23.2 mg/kg): 378 ng/mL
MRT0-inf ([2]; after iv Compound 1 23.2 mg/kg): 4.48 h
MRT0-last ([2]; after iv Compound 1 23.2 mg/kg): 3.65 h
Tmax ([2]; after iv Compound 1 23.2 mg/kg): 4.00 h
t1/2 ([2]; after iv Compound 1 23.2 mg/kg): 2.86 h
AUC0-last [2, 8]: 983 ng·h/mL
AUC(0-inf) [2, 8]: 1124 ng·h/mL
Cmax [2, 8]: 213 ng/mL
MRT0-inf [2, 8]: 4.67 h
MRT0-last [2, 8]: 3.59 h
Tmax [2, 8]: 4.00 h
t1/2 [2, 8]: 3.06 h
AUC0-last [2, 9]: 1106 ng·h/mL
AUC(0-inf) [2, 9]: 1625 ng·h/mL
Cmax [2, 9]: 236 ng/mL
MRT0-inf [2, 9]: 5.89 h
MRT0-last [2, 9]: 3.95 h
Tmax [2, 9]: 4.00 h
t1/2 [2, 9]: 4.15 h
AUC0-last ([3]; after iv Compound 1 5 mg/kg): 3397 ng·h/mL
AUC(0-inf) ([3]; after iv Compound 1 5 mg/kg): 8767 ng·h/mL
Cmax ([3]; after iv Compound 1 5 mg/kg): 321 ng/mL
MRT0-inf ([3]; after iv Compound 1 5 mg/kg): 34.42 h
MRT0-last ([3]; after iv Compound 1 5 mg/kg): 8.98 h
Tmax ([3]; after iv Compound 1 5 mg/kg): 0.39 h
t1/2 ([3]; after iv Compound 1 5 mg/kg): 24.00 h
AUC0-last [3, 10]: 12467 ng·h/mL
AUC(0-inf) [3, 10]: 17600 ng·h/mL
Cmax [3, 10]: 2153 ng/mL
MRT0-inf [3, 10]: 18.06 h
MRT0-last [3, 10]: 8.21 h
Tmax [3, 10]: 0.04 h
t1/2 [3, 10]: 12.90 h
AUC0-last ([4]; after iv Int 1-4 10.0 mg/kg): 288 ng·h/mL
Cmax ([4]; after iv Int 1-4 10.0 mg/kg): 66.5 ng/mL
MRT0-last ([4]; after iv Int 1-4 10.0 mg/kg): 5.55 h
Tmax ([4]; after iv Int 1-4 10.0 mg/kg): 8.00 h
AUC0-last [4, 11]: 1085 ng·h/mL
Cmax [4, 11]: 222 ng/mL
MRT0-last [4, 11]: 5.25 h
Tmax [4, 11]: 8.00 h
AUC0-last [5, 12]: 13167 ng·h/mL
AUC(0-inf) [5, 12]: 14300 ng·h/mL
Cmax [5, 12]: 1173 ng/mL
MRT0-inf [5, 12]: 15.33 h
MRT0-last [5, 12]: 9.20 h
Tmax [5, 12]: 3.33 h
t1/2 [5, 12]: 10.0 h
AUC0-last [5, 13]: 31267 ng·h/mL
AUC(0-inf) [5, 13]: 40233 ng·h/mL
Cmax [5, 13]: 2873 ng/mL
MRT0-inf [5, 13]: 15.97 h
MRT0-last [5, 13]: 9.27 h
Tmax [5, 13]: 2.00 h
t1/2 [5, 13]: 10.53 h
AUC0-last [6, 14]: 9863 ng·h/mL
AUC(0-inf) [6, 14]: 13743 ng·h/mL
Cmax [6, 14]: 715 ng/mL
MRT0-inf [6, 14]: 18.22 h
MRT0-last [6, 14]: 9.89 h
Tmax [6, 14]: 4.00 h
t1/2 [6, 14]: 11.79 h
AUC0-last [6, 15]: 11700 ng·h/mL
AUC(0-inf) [6, 15]: 13800 ng·h/mL
Cmax [6, 15]: 936 ng/mL
MRT0-inf [6, 15]: 12.99 h
MRT0-last [6, 15]: 8.94 h
Tmax [6, 15]: 2.00 h
t1/2 [6, 15]: 8.40 h
AUC0-last [6, 7]: 20133 ng·h/mL
AUC(0-inf) [6, 7]: 23967 ng·h/mL
Cmax [6, 7]: 1813 ng/mL
MRT0-inf [6, 7]: 13.31 h
MRT0-last [6, 7]: 8.71 h
Tmax [6, 7]: 3.00 h
Compound: O=c1ccn(C2OC(CO)C(O)C2(F)F)c(=O)[nH]1 (centres unmarked) [dFdU]

— US11760773B2, “Small molecule drug conjugates of gemcitabine monophosphate” (MaveriX Oncology, Inc., priority 2018, dated 2023)
